Source: patent publication US8741836B2, “Polypeptides” (Novo Nordisk A/S, priority 2011, dated 2014)
Starred links: 1 amine or outer side, 2 acyl side, 3 side chain; linkers in the order of their positions; H or OH if unused. Positions of bridges follow the written chain, without caps; N, C: chain ends. Residues, ends and D or L forms follow the SMILES beside them. *: point of attachment. C20 diacid = O=C(O)CCCCCCCCCCCCCCCCCCC(=O)*; γGlu = O=C(O)[C@H](CCC(=O)[*:2])N[*:1]

Assay: Assay (III) ThT fibrillation assay for physical stability
Assay type: physicochemical
Conditions: pH 4.0
How it was run: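 Freshly prepared, pH-adjusted formulations with 1 μM ThT incubated at 37 °C under 960 rpm orbital shaking (1 mm), fluorescence (ex 444, em 485 nm) read every 20 min. […] Peptide content before and after measured by reverse-phase HPLC against pramlintide standard.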

Row | Structure (SMILES) | ThT pH 4.0 lag time (physical stability in fibrillogenesis assay)
1 | CC[C@H](C)[C@H](NC(=O)[C@@H]1CCCN1C(=O)CNC(=O)[C@H](Cc1ccccc1)NC(=O)[C@H](CC(N)=O)NC(=O)[C@H](CCC(N)=O)NC(=O)[C@H](CO)NC(=O)[C@H](CO)NC(=O)[C@H](Cc1c[nH]cn1)NC(=O)[C@H](Cc1c[nH]cn1)NC(=O)[C@H](CC(C)C)NC(=O)[C@H](Cc1ccccc1)NC(=O)[C@H](CCC(=O)O)NC(=O)[C@H](C)NC(=O)[C@H](CC(C)C)NC(=O)[C@H](CCCNC(=N)N)NC(=O)[C@H](CCC(N)=O)NC(=O)[C@@H](NC(=O)[C@H](C)NC(=O)[C@@H]1CSSC[C@H](NC(=O)[C@H](CCCCN)NC(=O)CC[C@H](NC(=O)CCCCCCCCCCCCCCCCCCC(=O)O)C(=O)O)C(=O)N[C@@H](CC(N)=O)C(=O)N[C@@H]([C@@H](C)O)C(=O)N[C@@H](C)C(=O)N[C@@H]([C@@H](C)O)C(=O)N1)[C@@H](C)O)C(=O)N[C@@H](CC(C)C)C(=O)N1CCC[C@H]1C(=O)N1CCC[C@H]1C(=O)N[C@H](C(=O)N[C@@H](CC(N)=O)C(=O)N[C@H](C(=O)NCC(=O)N[C@@H](CO)C(=O)N[C@@H](CCC(N)=O)C(=O)N[C@H](C(=O)N1CCC[C@H]1C(N)=O)[C@@H](C)O)C(C)C)[C@@H](C)O [Example 136, N-alpha-[(S)-4-Carboxy-4-(19-carboxynonadecanoylamino)butyryl]-[Glu14,His17,Gln21,Gln35,Pro37]-pramlintide] ({C20 diacid-γGlu}-KCNTATCATQRLAEFLHHSSQNFGPILPPTNVGSQTP-NH2; disulfide 2-7 (inferred)) | >45 h

Same assay, conditions: pH 4.0, ThT fibrillation assay

Row | Structure (SMILES) | ThT pH 4.0 lag time
2 | CC[C@H](C)[C@H](NC(=O)[C@@H]1CCCN1C(=O)CNC(=O)[C@H](Cc1ccccc1)NC(=O)[C@H](CC(N)=O)NC(=O)[C@H](CCC(N)=O)NC(=O)[C@H](CO)NC(=O)[C@H](CO)NC(=O)[C@H](Cc1c[nH]cn1)NC(=O)[C@H](Cc1c[nH]cn1)NC(=O)[C@H](CC(C)C)NC(=O)[C@H](Cc1ccccc1)NC(=O)[C@H](CCC(=O)O)NC(=O)[C@H](C)NC(=O)[C@H](CC(C)C)NC(=O)[C@H](CCCNC(=N)N)NC(=O)[C@H](CCC(N)=O)NC(=O)[C@@H](NC(=O)[C@H](C)NC(=O)[C@@H]1CSSC[C@H](NC(=O)[C@H](CCCCN)NC(=O)CC[C@H](NC(=O)CCCCCCCCCCCCCCCCCCC(=O)O)C(=O)O)C(=O)N[C@@H](CC(N)=O)C(=O)N[C@@H]([C@@H](C)O)C(=O)N[C@@H](C)C(=O)N[C@@H]([C@@H](C)O)C(=O)N1)[C@@H](C)O)C(=O)N[C@@H](CC(C)C)C(=O)N1CCC[C@H]1C(=O)N1CCC[C@H]1C(=O)N[C@H](C(=O)N[C@@H](CC(N)=O)C(=O)N[C@H](C(=O)NCC(=O)N[C@@H](CO)C(=O)N[C@@H](CCC(N)=O)C(=O)N[C@H](C(=O)N1CCC[C@H]1C(N)=O)[C@@H](C)O)C(C)C)[C@@H](C)O [Example 136, N-alpha-[(S)-4-Carboxy-4-(19-carboxynonadecanoylamino)butyryl]-[Glu14,His17,Gln21,Gln35,Pro37]-pramlintide] ({C20 diacid-γGlu}-KCNTATCATQRLAEFLHHSSQNFGPILPPTNVGSQTP-NH2; disulfide 2-7 (inferred)) | >45 h
3 | CC[C@H](C)[C@H](NC(=O)[C@@H]1CCCN1C(=O)CNC(=O)[C@H](Cc1ccccc1)NC(=O)[C@H](CC(N)=O)NC(=O)[C@H](CCC(N)=O)NC(=O)[C@H](CO)NC(=O)[C@H](CO)NC(=O)[C@H](Cc1c[nH]cn1)NC(=O)[C@H](Cc1c[nH]cn1)NC(=O)[C@H](CC(C)C)NC(=O)[C@H](Cc1ccccc1)NC(=O)[C@H](CCC(=O)O)NC(=O)[C@H](C)NC(=O)[C@H](CC(C)C)NC(=O)[C@H](CCCNC(=N)N)NC(=O)[C@H](CCC(N)=O)NC(=O)[C@@H](NC(=O)[C@H](C)NC(=O)[C@@H]1CSSC[C@H](NC(=O)CNC(=O)CC[C@H](NC(=O)CCCCCCCCCCCCCCCCCCC(=O)O)C(=O)O)C(=O)N[C@@H](CC(N)=O)C(=O)N[C@@H]([C@@H](C)O)C(=O)N[C@@H](C)C(=O)N[C@@H]([C@@H](C)O)C(=O)N1)[C@@H](C)O)C(=O)N[C@@H](CC(C)C)C(=O)N1CCC[C@H]1C(=O)N1CCC[C@H]1C(=O)N[C@H](C(=O)N[C@@H](CC(N)=O)C(=O)N[C@H](C(=O)NCC(=O)N[C@@H](CO)C(=O)N[C@@H](CCC(N)=O)C(=O)N[C@H](C(=O)N1CCC[C@H]1C(N)=O)[C@@H](C)O)C(C)C)[C@@H](C)O [Example 137, N-alpha-[(S)-4-Carboxy-4-(19-carboxynonadecanoylamino)butyryl]-[Gly1,Glu14,His17,Gln21,Gln35,Pro37]-pramlintide] ({C20 diacid-γGlu}-GCNTATCATQRLAEFLHHSSQNFGPILPPTNVGSQTP-NH2; disulfide 2-7 (inferred)) | 29 h
4 | CC[C@H](C)[C@H](NC(=O)[C@@H]1CCCN1C(=O)CNC(=O)[C@H](Cc1ccccc1)NC(=O)[C@H](CC(N)=O)NC(=O)[C@H](CC(N)=O)NC(=O)[C@H](CO)NC(=O)[C@H](CO)NC(=O)[C@H](Cc1c[nH]cn1)NC(=O)[C@H](Cc1c[nH]cn1)NC(=O)[C@H](CC(C)C)NC(=O)[C@H](Cc1ccccc1)NC(=O)[C@H](CCC(=O)O)NC(=O)[C@H](C)NC(=O)[C@H](CC(C)C)NC(=O)[C@H](CCCNC(=N)N)NC(=O)[C@H](CCC(N)=O)NC(=O)[C@@H](NC(=O)[C@H](C)NC(=O)[C@@H]1CSSC[C@H](NC(=O)[C@H](CCCCN)NC(=O)[C@H](Cc2c[nH]cn2)NC(=O)[C@H](Cc2c[nH]cn2)NC(=O)CC[C@H](NC(=O)CCCCCCCCCCCCCCCCCCC(=O)O)C(=O)O)C(=O)N[C@@H](CC(N)=O)C(=O)N[C@@H]([C@@H](C)O)C(=O)N[C@@H](C)C(=O)N[C@@H]([C@@H](C)O)C(=O)N1)[C@@H](C)O)C(=O)N[C@@H](CC(C)C)C(=O)N1CCC[C@H]1C(=O)N1CCC[C@H]1C(=O)N[C@H](C(=O)N[C@@H](CC(N)=O)C(=O)N[C@H](C(=O)NCC(=O)N[C@@H](CO)C(=O)N[C@@H](Cc1c[nH]cn1)C(=O)N[C@H](C(=O)N[C@@H](Cc1ccc(O)cc1)C(N)=O)[C@@H](C)O)C(C)C)[C@@H](C)O [Example 67, N-alpha-[(S)-4-Carboxy-4-(19-carboxynonadecanoylamino)butyryl]-His-His-[Glu14,His17,His35]-pramlintide] ({C20 diacid-γGlu}-HHKCNTATCATQRLAEFLHHSSNNFGPILPPTNVGSHTY-NH2; disulfide 4-9 (inferred)) | >45 h
5 | CC[C@H](C)[C@H](NC(=O)[C@@H]1CCCN1C(=O)CNC(=O)[C@H](Cc1ccccc1)NC(=O)[C@H](CC(N)=O)NC(=O)[C@H](CC(N)=O)NC(=O)[C@H](CO)NC(=O)[C@H](CO)NC(=O)[C@H](Cc1c[nH]cn1)NC(=O)[C@H](CCCNC(=N)N)NC(=O)[C@H](CC(C)C)NC(=O)[C@H](Cc1ccccc1)NC(=O)[C@H](CCC(=O)O)NC(=O)[C@H](C)NC(=O)[C@H](CC(C)C)NC(=O)[C@H](CCCNC(=N)N)NC(=O)[C@H](CCC(N)=O)NC(=O)[C@@H](NC(=O)[C@H](C)NC(=O)[C@@H]1CSSC[C@H](NC(=O)[C@H](CCCCN)NC(=O)[C@H](Cc2c[nH]cn2)NC(=O)[C@H](Cc2c[nH]cn2)NC(=O)CC[C@H](NC(=O)CCCCCCCCCCCCCCCCCCC(=O)O)C(=O)O)C(=O)N[C@@H](CC(N)=O)C(=O)N[C@@H]([C@@H](C)O)C(=O)N[C@@H](C)C(=O)N[C@@H]([C@@H](C)O)C(=O)N1)[C@@H](C)O)C(=O)N[C@@H](CC(C)C)C(=O)N1CCC[C@H]1C(=O)N1CCC[C@H]1C(=O)N[C@H](C(=O)N[C@@H](CC(N)=O)C(=O)N[C@H](C(=O)NCC(=O)N[C@@H](CO)C(=O)N[C@@H](Cc1c[nH]cn1)C(=O)N[C@H](C(=O)N[C@@H](Cc1ccc(O)cc1)C(N)=O)[C@@H](C)O)C(C)C)[C@@H](C)O [Example 69, N-alpha-[(S)-4-Carboxy-4-(19-carboxynonadecanoylamino)butyryl]-His-His-[Glu14,Arg17,His35]-pramlintide] ({C20 diacid-γGlu}-HHKCNTATCATQRLAEFLRHSSNNFGPILPPTNVGSHTY-NH2; disulfide 4-9) | >45 h
6 | CC[C@H](C)[C@H](NC(=O)[C@@H]1CCCN1C(=O)CNC(=O)[C@H](Cc1ccccc1)NC(=O)[C@H](CC(N)=O)NC(=O)[C@H](CC(=O)O)NC(=O)[C@H](CO)NC(=O)[C@H](CO)NC(=O)[C@H](Cc1c[nH]cn1)NC(=O)[C@H](Cc1c[nH]cn1)NC(=O)[C@H](CC(C)C)NC(=O)[C@H](Cc1ccccc1)NC(=O)[C@H](CCC(=O)O)NC(=O)[C@H](C)NC(=O)[C@H](CC(C)C)NC(=O)[C@H](CCCNC(=N)N)NC(=O)[C@H](CCC(N)=O)NC(=O)[C@@H](NC(=O)[C@H](C)NC(=O)[C@@H]1CSSC[C@H](NC(=O)[C@H](CCCCN)NC(=O)CC[C@H](NC(=O)CCCCCCCCCCCCCCCCCCC(=O)O)C(=O)O)C(=O)N[C@@H](CC(N)=O)C(=O)N[C@@H]([C@@H](C)O)C(=O)N[C@@H](C)C(=O)N[C@@H]([C@@H](C)O)C(=O)N1)[C@@H](C)O)C(=O)N[C@@H](CC(C)C)C(=O)N1CCC[C@H]1C(=O)N1CCC[C@H]1C(=O)N[C@H](C(=O)N[C@@H](CC(N)=O)C(=O)N[C@H](C(=O)NCC(=O)N[C@@H](CO)C(=O)N[C@@H](Cc1c[nH]cn1)C(=O)N[C@H](C(=O)N[C@@H](Cc1ccc(O)cc1)C(N)=O)[C@@H](C)O)C(C)C)[C@@H](C)O [Example 128, N-alpha-[(S)-4-Carboxy-4-(19-carboxynonadecanoylamino)butyryl]-[Glu14,His17,Asp21,His35]-pramlintide] ({C20 diacid-γGlu}-KCNTATCATQRLAEFLHHSSDNFGPILPPTNVGSHTY-NH2; disulfide 2-7) | >45 h
7 | CC[C@H](C)[C@H](NC(=O)[C@@H]1CCCN1C(=O)CNC(=O)[C@H](Cc1ccccc1)NC(=O)[C@H](CC(N)=O)NC(=O)[C@H](CC(N)=O)NC(=O)[C@H](CO)NC(=O)[C@H](CO)NC(=O)[C@H](CCCNC(=N)N)NC(=O)[C@H](Cc1c[nH]cn1)NC(=O)[C@H](CC(C)C)NC(=O)[C@H](Cc1ccccc1)NC(=O)[C@H](CCC(=O)O)NC(=O)[C@H](C)NC(=O)[C@H](CC(C)C)NC(=O)[C@H](CCCNC(=N)N)NC(=O)[C@H](CCC(N)=O)NC(=O)[C@@H](NC(=O)[C@H](C)NC(=O)[C@@H]1CSSC[C@H](NC(=O)[C@H](CCCCN)NC(=O)CC[C@H](NC(=O)CCCCCCCCCCCCCCCCCCC(=O)O)C(=O)O)C(=O)N[C@@H](CC(N)=O)C(=O)N[C@@H]([C@@H](C)O)C(=O)N[C@@H](C)C(=O)N[C@@H]([C@@H](C)O)C(=O)N1)[C@@H](C)O)C(=O)N[C@@H](CC(C)C)C(=O)N1CCC[C@H]1C(=O)N1CCC[C@H]1C(=O)N[C@H](C(=O)N[C@@H](CC(N)=O)C(=O)N[C@H](C(=O)NCC(=O)N[C@@H](CO)C(=O)N[C@@H](Cc1c[nH]cn1)C(=O)N[C@H](C(=O)N[C@@H](Cc1ccc(O)cc1)C(N)=O)[C@@H](C)O)C(C)C)[C@@H](C)O [Example 78, N-alpha-[(S)-4-Carboxy-4-(19-carboxynonadecanoylamino)butyryl]-[Glu14,His17,Arg18,His35]-pramlintide] ({C20 diacid-γGlu}-KCNTATCATQRLAEFLHRSSNNFGPILPPTNVGSHTY-NH2; disulfide 2-7 (inferred)) | >45 h
